For the test, the target named is T1, LmrCD (Lactococcus cremoris, UniProt A2RI37+A2RI38, A2RI37:C179R).
T1 construct: gene lmrC
Description: biochemical.

T1 sequence (A2RI37 entry or part of it C179R): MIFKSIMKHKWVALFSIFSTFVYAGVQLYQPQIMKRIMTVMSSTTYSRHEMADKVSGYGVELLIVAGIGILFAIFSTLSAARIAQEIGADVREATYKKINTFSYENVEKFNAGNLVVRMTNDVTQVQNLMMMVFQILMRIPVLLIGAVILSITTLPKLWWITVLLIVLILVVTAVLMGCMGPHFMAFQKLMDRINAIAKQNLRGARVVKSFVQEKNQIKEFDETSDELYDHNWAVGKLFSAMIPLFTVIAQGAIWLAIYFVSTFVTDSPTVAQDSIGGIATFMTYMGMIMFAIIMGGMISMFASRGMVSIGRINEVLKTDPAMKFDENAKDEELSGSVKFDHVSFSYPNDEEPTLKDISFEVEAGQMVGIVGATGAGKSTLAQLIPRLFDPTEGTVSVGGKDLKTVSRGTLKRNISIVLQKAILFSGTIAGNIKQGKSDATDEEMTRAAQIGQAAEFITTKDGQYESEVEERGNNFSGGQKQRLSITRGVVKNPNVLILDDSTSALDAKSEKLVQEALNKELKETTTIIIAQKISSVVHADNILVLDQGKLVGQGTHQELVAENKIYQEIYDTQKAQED
T1 sequence (A2RI38 entry or part of it): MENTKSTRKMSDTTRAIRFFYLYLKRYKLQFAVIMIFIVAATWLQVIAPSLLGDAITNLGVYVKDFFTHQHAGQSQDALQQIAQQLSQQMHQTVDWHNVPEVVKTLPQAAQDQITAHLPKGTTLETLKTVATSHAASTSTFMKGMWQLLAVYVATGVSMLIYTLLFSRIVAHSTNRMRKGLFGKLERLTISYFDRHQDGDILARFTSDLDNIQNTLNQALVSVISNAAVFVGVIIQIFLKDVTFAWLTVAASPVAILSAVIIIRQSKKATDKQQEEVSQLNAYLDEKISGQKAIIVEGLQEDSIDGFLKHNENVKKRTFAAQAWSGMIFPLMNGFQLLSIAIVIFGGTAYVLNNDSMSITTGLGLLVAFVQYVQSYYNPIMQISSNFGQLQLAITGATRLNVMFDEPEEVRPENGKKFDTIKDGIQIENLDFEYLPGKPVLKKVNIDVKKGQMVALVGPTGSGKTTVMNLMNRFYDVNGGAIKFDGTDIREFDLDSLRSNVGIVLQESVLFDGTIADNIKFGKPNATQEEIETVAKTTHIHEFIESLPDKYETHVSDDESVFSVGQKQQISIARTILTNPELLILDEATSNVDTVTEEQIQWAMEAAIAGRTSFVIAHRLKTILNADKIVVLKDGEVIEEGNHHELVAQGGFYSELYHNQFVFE

In the case of `[O]=[V]([OH])([OH])[OH]` [orthovanadate], the midpoint of inhibition, the IC50, lay at 120 µM.

Values taken from article PMC3366976, “Tuning the Drug Efflux Activity of an ABC Transporter in vivo by in vitro Selected DARPin Binders” (PLoS ONE, 2012).
